These results are taken from patent US20050143453A1, “Selective preventing and therapeutic agents for progressive lesion after organic damage” (priority 2000, published 2005).

Series [1] relates to induction of effector macrophage by contact of human PBMC with mitomycin-treated human PBMC (allo-MLC). The series is described as follows: SPFC production by allo-MLC stimulation (Test Example 2). Particulars: for functional group (selective suppression of SPFC production by allo-MLC or LPS stimulation): summary of Table 1. The format is cell-based.
In series [2] the test system is induction of effector macrophage by contact of human PBMC with lipopolysaccharide. The series is described as follows: SPFC production by LPS stimulation (Test Example 1). The format is cell-based. As for the experimental part: A suppressive effect of the test compound to effector macrophage induction was investigated in vitro by an induction and production system of spontaneous plaque-forming cell (SPEC) mentioned in M. Ishibashi, S. Jiang, Y. Kokado, S. Takahara, T. Sonoda: Immunopharmacologic effects of immunosuppressive agents explored by a new effector generation assay. Transplant Proc., 21: 1854-1858, 1989.
Heparin-added peripheral blood (40 ml) was collected from a healthy person and the same amount of EDTA-added physiological saline was added. PBMC were obtained by a specific gravity centrifugal method using Ficoll-Hypaque (manufactured by Pharmacia Fine Chemicals). Self-plasma was added thereto and allowed to stand at 37° C. for 10 minutes and platelets were removed by a low-speed centrifugal separation. RPMI 1640 liquid containing 15 μg/ml of gentamicin and 2 mM L-glutamine was used for washing the PBMC. Concentration of the PBMC was adjusted to 2×10^6 cells/ml using the same liquid.
Each 200 μl of a solution containing 2×10^6 PBMC/ml prepared in the step 1 were added to each well of a micro test plate, lipopolysaccharide (hereinafter, abbreviated as LPS) was diluted with the RPMI 1640 liquid to make the final concentration 80 μg/ml and the said LPS solution was added to each well of the 200 μl-micro test plate. Further, each 50 μl of human serum of type AB were added so as to make the concentration 10% by weight. Two such micro test plates were prepared.
After that, to the above two micro test plates was added a solution where the test compound was diluted with 1% by weight of DMSO so as to make the concentration of the test compound 1 μM. Similarly were prepared each two micro test plates where the final concentrations of the test compound were 0.1 μM, 0.01 μM and 0.001 μM.
The culture liquid prepared as such was incubated for 6 days at 37° C. in 5% CO2.
The effector macrophage induced after the incubation was all recovered using a rubber-policeman (spatula made of rubber). A Hanks solution containing 5 μg/ml of gentamicin was used for washing and, using the said solution, there was prepared a solution where the concentration of the induced effector macrophage was 2×10^6 per ml.
With regard to autologous erythrocytes, those which were preserved at 4° C. in a phosphate physiological saline (hereinafter, abbreviated as PBS) to which 0.1% by weight of AB serum and autologous erythrocytes obtained from PBMC separation were used were used. The preserved autologous erythrocytes were washed for three times with a Hanks solution to which no serum was added and made into a solution of 4% by weight concentration using the said Hanks solution. Poly-L-lysine was added to a Terasaki plate and washed with PBS every 20 minutes at 37° C., the above-mentioned autologous erythrocyte solution was added thereto immediately, the mixture was allowed to stand at 37° C. for 30 minutes and the erythrocytes which were not adhered to the plate were removed to prepare a Terasaki plate to which self-erythrocytes in a monolayer were adhered.
A Hanks solution (4 μl) was added to the said Terasaki plate, 4 μl of a solution containing the induced effector macrophage obtained in the step 3 were added thereto and the mixture was allowed to stand at 37° C. for 2 hours. After completion of the reaction, it was fixed by formalin. Numbers of the produced SPFC which were adhered or phagocytized were measured.
A mean SPFC production number was calculated from the measured values of SPFC production when the concentration of the test compound was the same. SPFC production number per 1×10^6 of the induced effector macrophage was calculated and, from the recovered induced effector macrophage numbers, total SPFC production amount (S2) was calculated.
As a control, no test compound was added and the same operation as above was carried out to calculate the total SPFC production amount (S1). […]

For series [3], the system named is obstruction-released kidney of male SD rats. As to the kind of experiment: Obstruction release model after complete obstruction of unilateral ureter for 14 days (UUO/Release, Test Example 3). The format is in vivo, rat. Also on record: key to Suppressive Effect to Glomerular Lesion / Suppressive Effect to Lesion of Tubulointerstitial Tissue: ∘: available; Δ: somewhat available; x: not available. Particulars: for selectivity of the suppressive effect on renal lesions / Rate of Cases where Glomerular Lesion was Suppressed / Rate of Cases where tubulointerstitial Lesion was Suppressed / Serum Creatinine level (mg/dl) on the 7th Day from Release of Obstruction / Weight of Kidney (g) on the 7th Day from Release of Obstruction: 30 mg/kg subcutaneously every day; for Rate of Cases where Glomerular Lesion was Suppressed / Rate of Cases where tubulointerstitial Lesion was Suppressed / Serum Creatinine level (mg/dl) on the 7th Day from Release of Obstruction / Weight of Kidney (g) on the 7th Day from Release of Obstruction: Table 2. As for the experimental part: Obstruction Release Model after Complete Obstruction of Unilateral Ureter for 14 Days
Experimental models were prepared by a method devised and established by Ishibashi (Michio Ishibashi, et al.: The Japanese Journal of Nephrology, 42: 248, 2000) using male SD rats of 8-9 weeks age and about 280 g. Thus, the rat was laparotomized under anesthetization with ether and ureter was ligated with 7-0 Nylon at the height of the margin of lower pole of left kidney to close the abdomen. On the 14th day after obstruction, the obstruction was released and urinary passage was reconstructed using a cuff. Thus, after 14 days, the part of ligated obstructed ureter was resected, a polyethylene tube of 25 gages (manufactured by Nippon Sherwood) was used as a cuff and inserted into and retained at the lumen from the cut end of the lower normal ureter, then the cuff was also retained in the expanded upper ureter and each of them was ligated and fixed by 7-0 Nylon to reconstruct the urinary passage. At the same time, the right kidney at the opposite side was excised. After the release of the obstruction, body weight was measured, blood was collected on the 2nd day, 5th day and 7th day from the release to measure serum creatinine, then the rat was sacrificed under anesthetization and the left obstruction-released kidney was excised. With regard to the excised kidney, there were carried out measurement of weight of the kidney and pathological test for the kidney.
An in vivo biological test was carried out for the γ-lactone derivatives according to the present invention using the above models. With regard to the test compound, bulk powder of the test compound was dissolved in an aseptic physiological saline together with gum arabic and the final concentration of gum arabic was 5%(vol/vol). The concentration of the test compound 30 mg/ml was suspended in 5% gum arabic-saline solution. The preparation was subcutaneously injected at the dose of 30 mg/kg every day throughout the experiment. With regard to the test compound, there were used (9-1), (4-2) and (7-3) as the compounds of group I suppressing the SPFC production by allo-MLC stimulation, i.e., the compounds which selectively suppress the induction of effector macrophage in the presence of allo-MLC while there was used (3-2) as the compound of group II suppressing the SPFC production by LPS stimulation, i.e., the compounds which selectively suppress the induction of effector macrophage in the presence of LPS.
In the Table, “functional classification” of the compound means the above group I, group II and group III. “Compound” means the compound bearing each of the above-mentioned compound numbers. The fact whether glomerular lesion was suppressed was judged by the ameriolation of the lesions such as thickness of wall of Bowman's capsule, hyperplasia of mesangial cells and glomerular sclerosis. The fact whether lesion of tubulointerstitial tissue was suppressed was judged by the ameriolation of the lesions such as thickness of basement membrane of tubules, cellular infiltration and fibrosis of interstitial tissue. In the table, “control” is the result when the same test as above was carried out using 5% gum arabic only which is a solvent.
In order to further confirm whether the preventive and therapeutic effect of the γ-lactone derivatives of the present invention to the target cell damage is selective, (7-3) of the group I and (6-1) of the group II were used as test compounds and they were subcutaneously injected at the dose of 30 mg/kg every day and compared with the control group. With regard to the control group, only 5% gum arabic which is a solvent was used and the same test as above was carried out.

In series [4] the test system is kidney of chronic puromycin nephrosis rat. The series is described as follows: Puromycin chronic nephrosis model in rat (CPN, Test Example 4). The format is in vivo. Also on record: key to Suppressive Effect to Glomerular Lesion / Suppressive Effect to Lesion of Tubulointerstitial Tissue: ∘: available; Δ: somewhat available; x: not available. As for the experimental part: Evaluation Using Puromycin Chronic Nephrosis Model in Rat
Male SD rat of 8 weeks age of about 250 g was used and […] of puromycin were intravenously administered once according to a method of Diamond, et al. (J. R. Diamond, I. Pesek, S. Ruggeri, M. J. Karnovsky: Essential fatty acid deficiency during acute puromycin nephrosis ameliorates late renal injury. Am. J. Physiol, 257: F798˜F807, 1989). There was induced a chronic puromycin nephrosis rat where albuminuria increased from about tenth to twelfth week. After eighth week from administration of puromycin, each of compound (9-1) and compound (6-1) was subcutaneously injected at the dose of 30 mg/kg/day everyday until the 22nd week.
As a functional evaluation of kidney, albumin in urine was measured every week using a kit for the measurement of albumin. On the 22nd week, the rat was killed and anatomized to observe functional and morphological changes of kidney.

Series [5] in a line: Acute and chronic toxicity tests (Test Example 5). The format is in vivo. Conditions: subcutaneously 30 mg/kg/day for ten days. The procedure: Acute and Chronic Toxicity Tests
Toxicity test of benzyl 2-chloro-5-oxotetrahydrofuran-2-carboxylate represented by the formula (6-1) manufactured in Example 8 and ethyl 2-ketoglutarate represented by the formula (9-1) was carried out.

The test system of series [6] is lesion of tubulointerstitial tissue / glomerulus. As to the kind of experiment: Suppression of renal lesion in vivo by active metabolites (model not stated).
Where [7] appears, read: 144 h, human PBMC with mitomycin-treated human PBMC, incubated 6 days, Table 1, read-out: SPFC Production Inhibiting Concentration by all-MLC Stimulation (μM: IC50).
Where [8] appears, read: Homo sapiens, Table 5, read-out: Inhibiting Concentration for SPEC Production by allo-MLC Stimulation (μM: IC50).
The mark [9] stands for this setting: 144 h, human PBMC with LPS 80 μg/ml, incubated 6 days, Table 1, read-out: SPFC Production Inhibiting Concentration by LPS Stimulation (μM: IC50).
The mark [10] stands for this setting: Homo sapiens, Table 5, read-out: Inhibiting Concentration for SPEC Production by LPS Stimulation (μM: IC50).
The mark [11] stands for this setting: Experimental Model of Rat: UUO/Release and CPN.
The mark [12] stands for this setting: 30 mg/kg/day subcutaneously from 8th to 22nd week after puromycin.
Setting [13] is: Experimental Model of Rat: UUO/Release.

Where two headings read alike, the source gives them in different places.

Consider `CCOC(=O)C1(Oc2ccc(F)cc2)CCC(=O)O1` (racemic) [Conventional Compound, ethyl 2-(4-fluorophenoxy)-5-oxo-2-tetrahydrofurancarboxylate, reference compound], for which the IC50 in series [1] (setting [7]) was found to be 0.1 µM. Further, the IC50 in series [1] (setting [8]) was 0.1 µM. In series [2] (setting [9]), the IC50 is 0.1 µM. Moreover, the IC50 in series [2] (setting [10]) came out at 0.1 µM. For the same molecule, in series [3], the “selectivity of the suppressive effect on renal lesions” value is “no selective suppression was observed”, the “Rate of Cases where Glomerular Lesion was Suppressed” value is 75% (3/4), the “Rate of Cases where tubulointerstitial Lesion was Suppressed” value is 75% (3/4) and the “Serum Creatinine level (mg/dl) on the 7th Day from Release of Obstruction” value was determined as 2.2 ± 0.2 mg/dL. In addition, the “Weight of Kidney (g) on the 7th Day from Release of Obstruction” value in series [3] is given as 2.73 ± 0.41 g. Also, in series [3] (setting [11]), the “Suppressive Effect to Glomerular Lesion” value is recorded as “∘” and the “Suppressive Effect to Lesion of Tubulointerstitial Tissue” value (“Suppressive Effect to Lesion” below) is “∘”.
Consider `O=C1CCC(Cl)(C(=O)OCc2ccccc2)O1` (centres unmarked) [(6-1), Benzyl 2-chloro-5-oxotetrahydrofuran-2-carboxylate], for which the IC50 in series [1] (setting [7]) was more than 1 µM; in series [1] (setting [8]), more than 1 µM; in series [2] (setting [9]), 0.001 µM; in series [2] (setting [10]), 0.001 µM. For the same molecule, in series [1], the “functional group (selective suppression of SPFC production by allo-MLC or LPS stimulation)” value was “group II”. In addition, in series [4] (30 mg/kg/day subcutaneously), the “suppression of glomerular lesion” value is “well suppressed”. The “Rate of Cases where Glomerular Lesion was Suppressed” value in series [4] (setting [12]) is recorded as 67% (4/6). Further, the “Rate of Cases where Lesion of Tubulointerstitial Tissue was Suppressed” value in series [4] (setting [12]) was 17% (1/6). For the same molecule, the “Suppressive Effect to Glomerular Lesion” value in series [4] (Experimental Model of Rat: CPN) is given as “∘”. Also, the “Suppressive Effect to Lesion” value in series [4] (Experimental Model of Rat: CPN) is “x”. Besides, the toxicity finding entry in series [5] was “an increase in weights of the liver and the spleen in a light degree”.
For the molecule `O=C1CCC(F)(C(=O)OCc2ccccc2)O1` (centres unmarked) [(6-2), Benzyl 2-fluoro-5-oxotetrahydrofuran-2-carboxylate], the “functional group (selective suppression of SPFC production by allo-MLC or LPS stimulation)” value in series [1] is recorded as “group II”. Further, in series [2] (setting [9]), the IC50 was determined as 0.001 µM. Further, in series [2] (setting [10]), the IC50 came to 0.001 µM. In series [3] (setting [13]), the “Suppressive Effect to Glomerular Lesion” value is “∘” and the “Suppressive Effect to Lesion” value is listed as “x”.
Take `O=C1OC(Cl)(C(=O)OCc2ccccc2)c2ccccc21` (centres unmarked) [(7-3), Benzyl 1-chloro-3-oxo-1,3-dihydro-isobenzofuran-1-carboxylate]: the IC50 in series [1] (setting [7]) is 0.01 µM. Besides, the IC50 in series [1] (setting [8]) stood at 0.01 µM. Moreover, the “functional group (selective suppression of SPFC production by allo-MLC or LPS stimulation)” value in series [1] is reported as “group I”. Besides, the IC50 in series [2] (setting [9]) is more than 1 µM. Also, the IC50 in series [2] (setting [10]) was determined as 0.01 µM. In addition, in series [3], the “selectivity of the suppressive effect on renal lesions” value is reported as “selective suppressive effect”, the “Rate of Cases where Glomerular Lesion was Suppressed” value was 25% (1/4), the “Rate of Cases where tubulointerstitial Lesion was Suppressed” value is listed as 100% (4/4) and the “Serum Creatinine level (mg/dl) on the 7th Day from Release of Obstruction” value was 2.0 ± 0.6 mg/dL. Further, the “Weight of Kidney (g) on the 7th Day from Release of Obstruction” value in series [3] turned out to be 2.72 ± 0.47 g. Also, in series [3] (setting [13]), the “Suppressive Effect to Glomerular Lesion” value is reported as “x” and the “Suppressive Effect to Lesion” value is “∘”.
On to benzyl 2-ketoglutarate [(9-2)], for which the “suppression of SPFC production by LPS stimulation” value in series [2] was “selectively suppresses”. In addition, in series [6], the “suppression of lesion of glomerulus in vivo” value is “able to suppress”.
